Measurements published in ChEMBL document CHEMBL1201862, “PubChem BioAssay data set” (2004).
Calls of active or inactive are those of the source.

How the values were obtained:
[1] = target: T1, Methionyl-tRNA synthetase, putative (Trypanosoma brucei brucei, UniProt Q38C91); assay type: functional, Trypanosoma brucei brucei strain 927/4 GUTat10.1
T1 sequence (Q38C91 whole entry): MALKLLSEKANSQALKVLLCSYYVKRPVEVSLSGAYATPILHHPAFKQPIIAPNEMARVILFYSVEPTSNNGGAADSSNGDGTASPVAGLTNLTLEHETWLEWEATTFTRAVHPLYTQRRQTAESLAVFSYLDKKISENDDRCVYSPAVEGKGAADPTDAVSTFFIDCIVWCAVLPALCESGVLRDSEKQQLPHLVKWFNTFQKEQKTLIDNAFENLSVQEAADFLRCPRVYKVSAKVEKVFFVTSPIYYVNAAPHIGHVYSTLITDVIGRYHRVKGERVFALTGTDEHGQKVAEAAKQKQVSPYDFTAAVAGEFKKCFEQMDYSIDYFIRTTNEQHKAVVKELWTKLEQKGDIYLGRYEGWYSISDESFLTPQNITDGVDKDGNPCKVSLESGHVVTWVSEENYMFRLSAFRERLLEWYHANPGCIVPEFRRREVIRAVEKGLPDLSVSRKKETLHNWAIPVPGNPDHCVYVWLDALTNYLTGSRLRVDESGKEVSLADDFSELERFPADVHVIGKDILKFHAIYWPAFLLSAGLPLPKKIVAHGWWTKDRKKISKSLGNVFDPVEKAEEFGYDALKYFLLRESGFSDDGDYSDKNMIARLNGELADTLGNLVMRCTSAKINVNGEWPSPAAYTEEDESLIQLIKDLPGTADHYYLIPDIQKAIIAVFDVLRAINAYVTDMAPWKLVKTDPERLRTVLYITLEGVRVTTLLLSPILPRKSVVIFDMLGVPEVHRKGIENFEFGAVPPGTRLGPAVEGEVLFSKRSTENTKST

[2] = target: T1, Methionyl-tRNA synthetase, putative; assay type: functional, Trypanosoma brucei brucei strain 927/4 GUTat10.1; remark: listed apart in the source
[3] = Counterscreen for inhibitors of Trypanosoma brucei methionyl tRNA synthetase (MetRS): Luminescence-based cell-based high throughput dose response assay to identify compounds that are cytotoxic to Jurkat human T lymphocyte cells.; assay type: functional
[4] = target: T2, Corticotropin-releasing factor receptor 2/Corticotropin-releasing factor-binding protein (Homo sapiens, UniProt P24387+Q13324); assay: Dose Response confirmation of uHTS hits for small molecule antagonists of the CRF-binding protein and CRF-R2 receptor complex.; assay type: functional; settings: read-out: IC50_Mean
T2 sequence (Q13324 whole entry): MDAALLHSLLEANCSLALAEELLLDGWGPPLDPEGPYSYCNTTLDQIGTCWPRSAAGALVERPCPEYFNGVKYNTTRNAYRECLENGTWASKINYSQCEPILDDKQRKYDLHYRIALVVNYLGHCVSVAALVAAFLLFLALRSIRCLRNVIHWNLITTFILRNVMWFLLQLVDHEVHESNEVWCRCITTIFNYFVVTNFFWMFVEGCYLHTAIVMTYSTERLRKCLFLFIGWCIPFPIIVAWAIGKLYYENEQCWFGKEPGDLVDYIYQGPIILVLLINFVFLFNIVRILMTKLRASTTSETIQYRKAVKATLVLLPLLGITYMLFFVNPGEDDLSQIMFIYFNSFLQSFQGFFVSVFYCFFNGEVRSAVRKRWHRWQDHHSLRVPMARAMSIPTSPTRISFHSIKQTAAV
T2 sequence (P24387 whole entry): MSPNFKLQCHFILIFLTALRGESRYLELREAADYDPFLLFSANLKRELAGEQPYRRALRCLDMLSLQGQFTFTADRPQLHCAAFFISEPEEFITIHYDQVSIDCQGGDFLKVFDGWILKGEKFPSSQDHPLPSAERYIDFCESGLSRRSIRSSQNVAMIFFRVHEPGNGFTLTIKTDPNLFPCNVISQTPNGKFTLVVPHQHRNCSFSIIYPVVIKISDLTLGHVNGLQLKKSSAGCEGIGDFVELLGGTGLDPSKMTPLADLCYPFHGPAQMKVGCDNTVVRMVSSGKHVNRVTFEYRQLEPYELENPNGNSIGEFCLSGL

[5] = NIH3T3 cell viability loss – ATP luminescence, mouse fibroblasts, counter-screen, dose response (AID 2010); assay type: functional, cell-based;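 further: cells exposed to compound for about 90 hours before reading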
[6] = target: T2, Corticotropin-releasing factor receptor 2/Corticotropin-releasing factor-binding protein; assay: activators of CRF receptor 2 with binding protein – uHTS hits, confirmation (AID 602473); assay type: functional; settings: read-out: EC50_Mean
[7] = target: Beta-galactosidase (Escherichia coli, UniProt Q8VNN2); assay: Dose response counterscreen for EBI2 assay utilizing the enzyme, b-galactosidase.; assay type: functional
Chain of Beta-galactosidase (Q8VNN2 whole entry): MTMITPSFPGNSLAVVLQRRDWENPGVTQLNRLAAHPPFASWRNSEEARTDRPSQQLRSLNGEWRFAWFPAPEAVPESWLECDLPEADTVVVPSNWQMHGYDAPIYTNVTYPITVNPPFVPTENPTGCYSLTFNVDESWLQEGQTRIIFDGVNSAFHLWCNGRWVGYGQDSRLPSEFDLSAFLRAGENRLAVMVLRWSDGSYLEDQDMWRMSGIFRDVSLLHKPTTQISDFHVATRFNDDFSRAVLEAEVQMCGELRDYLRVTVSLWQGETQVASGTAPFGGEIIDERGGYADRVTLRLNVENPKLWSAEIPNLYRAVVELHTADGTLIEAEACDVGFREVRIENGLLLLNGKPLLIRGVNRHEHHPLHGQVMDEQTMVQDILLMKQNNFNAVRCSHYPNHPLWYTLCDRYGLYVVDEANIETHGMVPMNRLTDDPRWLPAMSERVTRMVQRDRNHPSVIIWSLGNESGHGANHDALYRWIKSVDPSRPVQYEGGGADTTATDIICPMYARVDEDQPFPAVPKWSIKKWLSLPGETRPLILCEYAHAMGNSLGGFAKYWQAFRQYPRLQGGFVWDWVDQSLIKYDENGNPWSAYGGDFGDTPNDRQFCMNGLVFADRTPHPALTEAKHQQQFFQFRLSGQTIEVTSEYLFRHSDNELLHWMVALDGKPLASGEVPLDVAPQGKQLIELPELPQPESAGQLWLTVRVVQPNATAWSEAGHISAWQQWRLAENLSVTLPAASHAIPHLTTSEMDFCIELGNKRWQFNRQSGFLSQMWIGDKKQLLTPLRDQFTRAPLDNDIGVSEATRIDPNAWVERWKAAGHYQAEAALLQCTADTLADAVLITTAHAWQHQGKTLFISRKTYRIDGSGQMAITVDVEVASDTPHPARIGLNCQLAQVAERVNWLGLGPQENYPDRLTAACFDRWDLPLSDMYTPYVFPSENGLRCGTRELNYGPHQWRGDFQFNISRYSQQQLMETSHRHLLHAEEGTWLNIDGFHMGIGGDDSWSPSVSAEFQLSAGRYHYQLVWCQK

[8] = Trypanosoma cruzi growth suppression in host cells – NIH3T3 host cells, beta-gal luminescence, confirmation (AID 2044); assay type: functional, cell-based;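 further: intracellular parasites grown in NIH/3T3 mouse fibroblasts as host cells; luminescent beta-galactosidase reporter signal from transgenic T. cruzi replicating inside host cells; inhibitors lower the luminescence signal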
[9] = target: Voltage-dependent T-type calcium channel subunit alpha-1H (Homo sapiens, UniProt O95180); assay type: functional;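 further: channel activity triggered by adding a high calcium stimulation buffer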
Chain of Voltage-dependent T-type calcium channel subunit alpha-1H (O95180 whole entry): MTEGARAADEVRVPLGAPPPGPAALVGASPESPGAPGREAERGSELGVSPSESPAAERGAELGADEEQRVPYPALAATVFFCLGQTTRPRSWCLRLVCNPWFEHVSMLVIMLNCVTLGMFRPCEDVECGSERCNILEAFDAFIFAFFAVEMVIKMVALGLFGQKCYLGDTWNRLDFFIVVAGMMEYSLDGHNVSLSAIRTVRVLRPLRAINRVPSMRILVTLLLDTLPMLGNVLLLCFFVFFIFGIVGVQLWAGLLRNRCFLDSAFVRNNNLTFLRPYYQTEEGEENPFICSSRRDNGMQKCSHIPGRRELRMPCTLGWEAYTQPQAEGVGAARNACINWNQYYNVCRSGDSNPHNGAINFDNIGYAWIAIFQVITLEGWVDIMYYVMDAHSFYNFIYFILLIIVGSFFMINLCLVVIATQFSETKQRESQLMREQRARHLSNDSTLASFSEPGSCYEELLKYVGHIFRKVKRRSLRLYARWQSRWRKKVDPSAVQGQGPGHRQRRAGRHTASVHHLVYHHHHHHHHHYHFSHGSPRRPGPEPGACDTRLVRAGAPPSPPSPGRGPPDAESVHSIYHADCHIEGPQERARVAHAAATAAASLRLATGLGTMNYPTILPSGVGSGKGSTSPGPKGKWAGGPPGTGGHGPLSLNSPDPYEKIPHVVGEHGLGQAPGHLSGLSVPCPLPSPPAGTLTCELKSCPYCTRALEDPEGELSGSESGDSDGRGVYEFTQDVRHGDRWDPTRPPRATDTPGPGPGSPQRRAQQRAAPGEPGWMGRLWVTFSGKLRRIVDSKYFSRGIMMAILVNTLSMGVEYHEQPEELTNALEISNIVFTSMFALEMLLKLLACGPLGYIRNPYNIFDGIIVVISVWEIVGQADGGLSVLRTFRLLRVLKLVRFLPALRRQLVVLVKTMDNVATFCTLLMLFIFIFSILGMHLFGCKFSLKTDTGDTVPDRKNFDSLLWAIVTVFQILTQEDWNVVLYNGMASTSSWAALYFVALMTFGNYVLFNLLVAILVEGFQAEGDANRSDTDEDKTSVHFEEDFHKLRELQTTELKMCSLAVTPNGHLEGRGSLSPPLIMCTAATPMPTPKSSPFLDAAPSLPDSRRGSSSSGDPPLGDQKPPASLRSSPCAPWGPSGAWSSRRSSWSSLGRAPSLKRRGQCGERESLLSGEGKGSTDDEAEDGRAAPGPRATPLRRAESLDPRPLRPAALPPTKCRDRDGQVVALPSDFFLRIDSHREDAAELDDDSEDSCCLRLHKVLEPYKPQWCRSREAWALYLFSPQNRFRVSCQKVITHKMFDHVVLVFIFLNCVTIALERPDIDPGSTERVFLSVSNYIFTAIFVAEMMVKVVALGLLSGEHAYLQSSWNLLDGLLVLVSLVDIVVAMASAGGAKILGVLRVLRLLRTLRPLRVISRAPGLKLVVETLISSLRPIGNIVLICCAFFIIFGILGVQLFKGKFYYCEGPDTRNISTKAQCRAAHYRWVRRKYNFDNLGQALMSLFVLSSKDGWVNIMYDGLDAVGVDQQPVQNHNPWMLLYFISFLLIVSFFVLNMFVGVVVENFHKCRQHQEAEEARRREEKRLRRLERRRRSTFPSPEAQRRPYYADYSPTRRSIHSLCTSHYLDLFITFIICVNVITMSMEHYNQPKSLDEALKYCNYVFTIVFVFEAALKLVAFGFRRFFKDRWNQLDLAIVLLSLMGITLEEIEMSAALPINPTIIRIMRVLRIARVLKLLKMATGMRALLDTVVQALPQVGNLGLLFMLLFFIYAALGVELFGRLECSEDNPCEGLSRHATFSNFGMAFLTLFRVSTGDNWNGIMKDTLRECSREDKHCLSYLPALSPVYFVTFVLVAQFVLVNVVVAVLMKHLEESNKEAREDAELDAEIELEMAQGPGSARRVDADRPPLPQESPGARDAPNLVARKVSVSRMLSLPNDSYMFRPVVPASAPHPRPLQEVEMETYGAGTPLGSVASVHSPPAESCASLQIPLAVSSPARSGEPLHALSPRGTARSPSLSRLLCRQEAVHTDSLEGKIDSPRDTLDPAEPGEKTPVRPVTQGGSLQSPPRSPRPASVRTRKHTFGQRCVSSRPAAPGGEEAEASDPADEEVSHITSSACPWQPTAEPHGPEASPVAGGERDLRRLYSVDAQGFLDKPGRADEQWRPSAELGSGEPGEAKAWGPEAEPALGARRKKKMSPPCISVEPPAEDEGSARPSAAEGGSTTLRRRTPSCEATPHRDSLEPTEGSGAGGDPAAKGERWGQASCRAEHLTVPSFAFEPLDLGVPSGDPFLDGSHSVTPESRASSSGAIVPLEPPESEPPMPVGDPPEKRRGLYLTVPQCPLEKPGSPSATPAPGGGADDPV

[10] = target: T3, Trace amine-associated receptor 1 (Homo sapiens, UniProt Q96RJ0); assay: Fluorescence-based cell-based high throughput dose response assay to identify agonists of the human trace amine associated receptor 1 (TAAR1).; assay type: functional
T3 sequence (Q96RJ0 whole entry): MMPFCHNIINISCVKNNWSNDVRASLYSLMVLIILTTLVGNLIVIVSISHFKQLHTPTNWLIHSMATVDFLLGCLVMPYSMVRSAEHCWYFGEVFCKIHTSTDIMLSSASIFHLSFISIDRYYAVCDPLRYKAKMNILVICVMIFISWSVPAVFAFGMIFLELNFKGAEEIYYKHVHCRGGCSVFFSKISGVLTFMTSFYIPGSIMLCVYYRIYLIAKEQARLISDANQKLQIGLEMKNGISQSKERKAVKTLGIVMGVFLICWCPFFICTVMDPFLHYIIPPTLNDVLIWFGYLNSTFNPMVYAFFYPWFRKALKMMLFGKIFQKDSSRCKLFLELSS

[11] = cells; assay type: functional, cell-based
[12] = cells; assay type: functional, cell-based; remark: listed apart in the source
[13] = target: T3, Trace amine-associated receptor 1; assay: Counterscreen for agonists of the human trace amine associated receptor 1 (hTAAR1): Fluorescence-based cell-based high throughput dose response assay to identify hTAAR1 agonist that also desensitize TAAR1 receptor response.; assay type: functional
[14] = target: Fructose-bisphosphate aldolase (Mycobacterium tuberculosis, UniProt P9WQA3); assay: Fluorescence-based biochemical high throughput dose response assay for inhibitors of the fructose-bisphosphate aldolase (FBA) of M. tuberculosis.; assay type: functional
Chain of Fructose-bisphosphate aldolase (P9WQA3 whole entry, the tested form may be a part): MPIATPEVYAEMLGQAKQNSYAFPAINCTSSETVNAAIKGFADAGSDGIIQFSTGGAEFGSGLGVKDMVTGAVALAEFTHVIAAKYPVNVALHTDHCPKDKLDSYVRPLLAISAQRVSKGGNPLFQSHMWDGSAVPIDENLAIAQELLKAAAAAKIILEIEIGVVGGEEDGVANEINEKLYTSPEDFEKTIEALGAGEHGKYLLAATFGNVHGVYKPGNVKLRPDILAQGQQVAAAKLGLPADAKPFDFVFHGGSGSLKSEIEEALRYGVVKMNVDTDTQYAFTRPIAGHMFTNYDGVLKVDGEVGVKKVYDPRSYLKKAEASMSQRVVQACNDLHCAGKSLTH

[15] = viability loss in CEM21 cells – cell-based, CellTiter-Glo luminescence, cherry-picked, cytotoxicity control for viral fusion inhibitor project, dose response (AID 652042); assay type: functional;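 further: potency for signal decrease meaning cytotoxicity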
[16] = target: Mu-type opioid receptor (Homo sapiens, UniProt P35372); assay type: functional, cell-based;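 further: U2OS cells with beta-arrestin recruitment to OPRM1 by beta-gal complementation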
Chain of Mu-type opioid receptor (P35372 whole entry): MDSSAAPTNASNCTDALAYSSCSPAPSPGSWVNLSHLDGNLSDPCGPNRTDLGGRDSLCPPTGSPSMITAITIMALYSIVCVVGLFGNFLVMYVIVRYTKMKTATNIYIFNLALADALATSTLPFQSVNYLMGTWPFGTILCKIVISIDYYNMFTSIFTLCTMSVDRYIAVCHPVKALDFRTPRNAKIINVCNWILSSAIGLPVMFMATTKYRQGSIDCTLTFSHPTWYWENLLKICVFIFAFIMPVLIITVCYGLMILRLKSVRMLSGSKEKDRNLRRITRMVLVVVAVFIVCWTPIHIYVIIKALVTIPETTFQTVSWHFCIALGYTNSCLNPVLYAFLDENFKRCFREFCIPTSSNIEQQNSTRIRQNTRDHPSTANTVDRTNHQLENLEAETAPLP

[17] = target: 5-hydroxytryptamine receptor 2A (Mus musculus, UniProt P35363); assay type: functional, cell-based;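 further: CHO-K1 cells with tagged receptor and beta-arrestin; agonist potency measured as compound-induced activation of the receptor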
Chain of 5-hydroxytryptamine receptor 2A (P35363 whole entry): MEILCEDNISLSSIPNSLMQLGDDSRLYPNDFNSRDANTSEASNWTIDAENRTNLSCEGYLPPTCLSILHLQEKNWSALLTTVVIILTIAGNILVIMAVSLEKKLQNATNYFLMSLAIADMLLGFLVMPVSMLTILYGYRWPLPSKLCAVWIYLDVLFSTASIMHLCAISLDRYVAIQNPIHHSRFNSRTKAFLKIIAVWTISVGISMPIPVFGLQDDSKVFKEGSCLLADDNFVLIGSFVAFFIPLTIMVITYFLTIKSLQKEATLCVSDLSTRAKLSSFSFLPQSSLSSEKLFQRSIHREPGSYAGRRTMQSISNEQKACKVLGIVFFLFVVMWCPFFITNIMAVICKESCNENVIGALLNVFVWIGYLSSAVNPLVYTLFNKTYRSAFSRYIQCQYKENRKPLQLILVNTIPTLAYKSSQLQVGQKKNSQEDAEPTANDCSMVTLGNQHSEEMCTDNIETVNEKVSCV

[18] = target: T4, Calpain-2 catalytic subunit (Sus scrofa, UniProt P43367); assay: m-calpain protease blockers, concentration series – biochemical, fluorogenic peptide substrate, dose response (AID 1420); assay type: functional
T4 sequence (P43367 whole entry): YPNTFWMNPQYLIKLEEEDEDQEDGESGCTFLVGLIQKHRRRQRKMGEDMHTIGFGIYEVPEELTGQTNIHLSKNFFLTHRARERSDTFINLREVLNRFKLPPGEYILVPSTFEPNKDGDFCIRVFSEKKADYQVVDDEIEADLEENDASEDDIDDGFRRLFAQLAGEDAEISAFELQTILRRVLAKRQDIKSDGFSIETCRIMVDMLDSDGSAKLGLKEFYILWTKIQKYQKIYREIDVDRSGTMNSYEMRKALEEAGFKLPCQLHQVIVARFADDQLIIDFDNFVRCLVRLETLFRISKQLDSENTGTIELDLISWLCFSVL

[19] = target: T5, Heat shock factor protein 1 (Mus musculus, UniProt P38532); assay: enhancement of HSF1-driven luciferase signal – cell-based, NIH3T3, luminescence, dose retest, confirmation (AID 435004); assay type: functional;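 further: stress induced by proteasome inhibitor MG132 added 30 min after compound; luciferase reporter driven by HSF1 response element in NIH3T3 cells; actives raise luminescence as potentiators of the MG132 stress response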
T5 sequence (P38532 whole entry): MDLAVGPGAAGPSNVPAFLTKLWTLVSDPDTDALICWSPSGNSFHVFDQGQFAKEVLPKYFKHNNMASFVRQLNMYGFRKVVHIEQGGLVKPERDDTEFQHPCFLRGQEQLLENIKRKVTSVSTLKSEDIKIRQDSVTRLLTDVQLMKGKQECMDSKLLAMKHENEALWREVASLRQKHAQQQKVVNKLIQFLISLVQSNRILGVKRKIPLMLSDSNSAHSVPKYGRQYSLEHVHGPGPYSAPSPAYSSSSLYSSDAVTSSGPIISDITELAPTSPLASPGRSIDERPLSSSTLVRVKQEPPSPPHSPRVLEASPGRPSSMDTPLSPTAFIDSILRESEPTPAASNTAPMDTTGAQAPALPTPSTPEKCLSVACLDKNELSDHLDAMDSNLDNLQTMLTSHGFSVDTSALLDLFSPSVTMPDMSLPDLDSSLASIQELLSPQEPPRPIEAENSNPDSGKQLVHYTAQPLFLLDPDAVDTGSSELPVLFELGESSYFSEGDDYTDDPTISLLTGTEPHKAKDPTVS

[20] = system: HEK293; assay: cells; settings: Homo sapiens
[21] = blockers of HIV-1 ZM109 envelope-driven cell-cell fusion – HeLa effector, CEM target cells, luciferase, cherry-pick, dose response (AID 652058); assay type: functional, cell-based;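 further: luciferase signal from HIV-1 Env mediated cell-cell fusion of effector and target cells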
[22] = system: HEK293; assay: cells; settings: Homo sapiens; remark: listed apart in the source
[23] = system: H4; assay: Luminescence Cell-Based Dose Response HTS to Identify Activators of 5'UTR Stem-Loop Driven Prion Protein mRNA Translation in H4 Neuroglioblastoma Cells. [Related pubchem assays: 1829 (Project Summary), 1814 (Primary HTS)]; assay type: functional; settings: Homo sapiens
[24] = Luminescence Cell-Based Dose Response HTS to Identify Activators of Luciferase Translation or Activity in H4 […] Cells. [Related pubchem assays: 1829 (Project Summary), 1814 (Primary HTS)]; assay type: functional
[25] = blockers of HIV-1 envelope-mediated cell-cell fusion – cherry-pick, dose response (AID 652057); assay type: functional, cell-based
[26] = Luminescence Cell-Based Dose Confirmation HTS to Identify Activators of 5'UTR Stem-Loop Driven Alpha-Synuclein mRNA Translation in H4 Neuroglioblastoma Cells. [Related pubchem assays: 1829 (Project Summary), 1814 (Primary HTS)]; assay type: functional
[27] = target: T6, Ubiquitin-conjugating enzyme E2 N (Homo sapiens, UniProt P61088); assay type: functional;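 further: Dose-response confirmation in a TR-FRET assay detecting UBC13-driven polyubiquitin chain formation, inhibition measured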
T6 sequence (P61088 whole entry): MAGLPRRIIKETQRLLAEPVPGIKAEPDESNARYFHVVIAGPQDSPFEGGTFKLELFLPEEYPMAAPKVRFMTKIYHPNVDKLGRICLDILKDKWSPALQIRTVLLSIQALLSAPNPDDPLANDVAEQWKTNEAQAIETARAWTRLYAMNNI

[28] = off-target signal loss in HeLa-CEM21 co-culture – HeLa F-luc CTL cells, cherry-picked, counter-screen for HIV-1 Env fusion inhibitor project, dose response (AID 652040); assay type: functional, cell-based;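 further: potency for signal decrease marking cytotoxic or nonspecific inhibition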
[29] = HIV-1 AD8 envelope cell-cell fusion blockers – cherry-pick, dose response (AID 652062); assay type: functional, cell-based;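 further: luciferase signal from cell-cell fusion driven by HIV-1 clade B AD8 Env; potency is for inhibitors of fusion seen as a drop in luminescence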
[30] = target: Melanocortin receptor 4 (Homo sapiens, UniProt P32245); assay type: functional, cell-based;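 further: Cell-based assay with luminescence read-out, confirmatory dose-response testing for agonist activity of biased ligands at MC4R; human U2OS cells with tagged receptor and beta-arrestin; potency of agonists that increase receptor coupling to beta-arrestin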
Chain of Melanocortin receptor 4 (P32245 whole entry): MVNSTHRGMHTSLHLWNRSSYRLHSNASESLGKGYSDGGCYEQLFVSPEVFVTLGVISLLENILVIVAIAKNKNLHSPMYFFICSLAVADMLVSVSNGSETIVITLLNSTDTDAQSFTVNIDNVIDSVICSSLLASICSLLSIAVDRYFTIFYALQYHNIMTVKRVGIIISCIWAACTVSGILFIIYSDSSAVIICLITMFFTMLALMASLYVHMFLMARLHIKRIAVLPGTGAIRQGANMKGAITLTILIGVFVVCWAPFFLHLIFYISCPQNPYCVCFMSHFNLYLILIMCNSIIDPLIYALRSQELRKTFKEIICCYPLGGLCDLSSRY

[31] = target: T5, Heat shock factor protein 1; assay: decrease of HSF1-responsive luciferase luminescence – cell-based, NIH3T3, dose retest, confirmation (AID 2382); assay type: functional;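 further: NIH3T3 fibroblasts with HSF1-driven luciferase reporter stressed by proteasome inhibitor MG132; luminescence from HSF1-driven luciferase expression after 8 hours of MG132 stress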

SMILES: O=C(Nc1ccc(C(=O)O)cc1)/C(=C\C=C\c1ccccc1)NC(=O)c1ccc(Br)cc1
- IC50 [1]: 29.6 µM (inactive)
- IC50 [2]: 11.5 µM (inactive)
- IC50 [3]: 83.3 µM (inactive)

SMILES: Cc1ccc(OCC(=O)N2CCN(c3nnc(-c4ccc(C)cc4)c4ccccc34)CC2)cc1
- IC50 [4]: > 47.1 µM (inactive)
- EC50 [5]: > 60 µM (not active)
- EC50 [6]: > 53 µM (inactive)
- IC50 [7]: > 80 µM (inactive)
- EC50 [8]: 3.12 µM (active)
- EC50 [9]: 2.35 µM (active)

SMILES: O=C(CC1C(=O)NCCN1Cc1ccccn1)NCCc1ccccc1F (centres undefined)
- EC50 [10]: 2.12 µM (active)
- IC50 [11]: > 29.9 µM (inactive)
- EC50 [12]: > 29.9 µM (inactive)
- IC50 [13]: 5.23 µM (active)

SMILES: CN(C)c1ccc(-c2ccnc3c2CC(C)(C(=O)NCc2cccs2)O3)cc1 (centres undefined)
- IC50 [14]: 0.56 µM (active)

SMILES: CC(NNC(=S)N1CCCCCC1)c1ccc2ccccc2n1 (centres undefined)
- AC50 [15]: 1.59 µM (active)

SMILES: O=C(Cc1ccc(Br)cc1)Nc1cccc(S(=O)(=O)N2CCOCC2)c1
- IC50 [1]: 3.47 µM (active)
- IC50 [2]: 7 µM (active)
- IC50 [3]: 82.3 µM (inactive)

SMILES: O=[N+]([O-])c1ccc(OCC(O)CN2CCN(c3ccccc3F)CC2)cc1 (centres undefined)
- EC50 [16]: 92.5 µM (inactive)
- EC50 [17]: 76.1 µM (inactive)
- IC50 [18]: > 50 µM (not active)

SMILES: CN1CCN(C(=O)c2cc3sc4ccccc4c3s2)CC1
- IC50 [7]: > 80 µM (inactive)
- EC50 [19]: > 260 µM (inactive)

SMILES: CCN(CC)S(=O)(=O)c1cc(NC(=O)CN2CCN(c3ccccn3)CC2)ccc1C
- EC50 [16]: 92.5 µM (inactive)
- EC50 [17]: 0.761 µM (active)

SMILES: Cc1c(CCOC(=O)CC23CC4CC(CC(C)(C4)C2)C3)sc[n+]1CC(=O)c1ccccc1
- EC50 [20]: > 59.6 µM (inactive)
- AC50 [21]: 3.85 µM (active)
- EC50 [22]: > 59.6 µM (inactive)
- EC50 [23]: > 120 µM (not active)
- EC50 [24]: > 120 µM (not active)
- AC50 [25]: 3.05 µM (active)
- EC50 [26]: > 120 µM (not active)
- AC50 [15]: 16.8 µM (active)
- IC50 [27]: > 20 µM (inactive)
- AC50 [28]: 4.35 µM (active)
- AC50 [29]: 12.7 µM (active)
- EC50 [30]: > 89.2 µM (inactive)

SMILES: Cc1c(O)ccc2c(CC(=O)N[C@@H](Cc3ccc(O)cc3)C(=O)O)cc(=O)oc12
- EC50 [31]: > 195 µM (not active)
- IC50 [14]: 0.906 µM (active)
